Key:
human GnRHR [1] = target: T1, human GnRHR (Homo sapiens, UniProt P30968); test: In vitro binding screening ([125I]-[D-Trp6]-LH-RH displacement, Chem-1 cell membrane); design: host or cells: Chem-1 cells (membrane preparation)
T1 sequence (P30968 1-328): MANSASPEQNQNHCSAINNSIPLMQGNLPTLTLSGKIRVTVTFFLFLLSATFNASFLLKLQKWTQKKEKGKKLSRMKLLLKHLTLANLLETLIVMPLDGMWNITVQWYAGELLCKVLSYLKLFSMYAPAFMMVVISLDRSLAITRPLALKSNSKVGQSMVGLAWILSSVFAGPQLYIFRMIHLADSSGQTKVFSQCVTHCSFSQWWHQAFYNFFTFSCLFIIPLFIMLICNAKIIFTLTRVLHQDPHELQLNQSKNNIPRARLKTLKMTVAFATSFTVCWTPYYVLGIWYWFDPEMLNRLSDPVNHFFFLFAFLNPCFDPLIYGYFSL
Protocol: [D-Trp6]-LH-RH, PerkinElmer; [D-Trp6]-LH-RH, Abcam.
Equipment: MicroBeta2 LumiJET system, PerkinElmer.
1 µM [D-Trp6]-LH-RH was used in the non-specific binding assay. The cell membrane was collected by filtration under vacuum and washed before liquid scintillation. The binding IC50 and IC90 of the compound were calculated using Prism. Table 13. The in vitro binding activity of the compound of the present disclosure to human GnRHR

[2] = target: T2, human hERG potassium channel (Homo sapiens, UniProt Q12809); test: hERG test (QPatch automated patch clamp, CHO cells); assay type: cell-based; conditions: CHO cells stably expressing human hERG potassium channel
T2 construct: host or cells: CHO
T2 sequence (Q12809 whole entry): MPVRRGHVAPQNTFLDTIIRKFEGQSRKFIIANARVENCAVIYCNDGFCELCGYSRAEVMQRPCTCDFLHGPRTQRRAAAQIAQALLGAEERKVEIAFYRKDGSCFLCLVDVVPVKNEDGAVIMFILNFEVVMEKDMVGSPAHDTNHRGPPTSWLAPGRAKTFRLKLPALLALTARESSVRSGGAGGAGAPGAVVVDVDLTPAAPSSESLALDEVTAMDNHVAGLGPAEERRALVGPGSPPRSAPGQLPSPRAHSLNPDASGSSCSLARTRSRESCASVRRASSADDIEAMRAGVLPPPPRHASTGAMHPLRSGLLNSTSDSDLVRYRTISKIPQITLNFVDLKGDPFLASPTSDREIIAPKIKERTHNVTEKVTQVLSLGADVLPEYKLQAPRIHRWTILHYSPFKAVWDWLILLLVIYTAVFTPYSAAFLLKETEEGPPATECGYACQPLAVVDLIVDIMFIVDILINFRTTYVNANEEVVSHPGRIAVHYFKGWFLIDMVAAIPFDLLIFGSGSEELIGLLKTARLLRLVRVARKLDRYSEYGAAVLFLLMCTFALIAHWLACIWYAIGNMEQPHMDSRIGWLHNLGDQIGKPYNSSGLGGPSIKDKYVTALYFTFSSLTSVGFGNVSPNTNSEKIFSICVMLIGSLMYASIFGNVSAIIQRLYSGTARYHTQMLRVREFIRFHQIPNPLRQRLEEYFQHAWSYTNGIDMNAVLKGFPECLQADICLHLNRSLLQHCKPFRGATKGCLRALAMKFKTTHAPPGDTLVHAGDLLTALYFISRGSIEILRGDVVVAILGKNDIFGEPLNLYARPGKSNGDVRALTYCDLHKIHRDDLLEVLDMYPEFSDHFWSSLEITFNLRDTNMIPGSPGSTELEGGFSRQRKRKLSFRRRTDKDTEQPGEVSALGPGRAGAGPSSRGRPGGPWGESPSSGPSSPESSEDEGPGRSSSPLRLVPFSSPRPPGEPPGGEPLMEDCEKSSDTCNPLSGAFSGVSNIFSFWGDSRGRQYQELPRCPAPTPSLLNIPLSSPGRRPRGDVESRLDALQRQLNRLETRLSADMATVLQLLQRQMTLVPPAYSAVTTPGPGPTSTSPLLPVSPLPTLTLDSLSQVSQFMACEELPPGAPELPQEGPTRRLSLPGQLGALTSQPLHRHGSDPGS
Protocol: Cell: CHO cells stably expressing a human hERG potassium channel (WuXi AppTec (Shanghai) Co., Ltd.)
Reagents: physiological solution (PH = 7.4): 140 mM NaCl, 4 mM KCl, 2 mM CaCl2, 1 mM MgCl2, 5 mM glucose, 10 mM HEPES, osmolarity: about 298 mOsm; external solution (PH = 7.4): 80 mM NaCl, 4 mM KCl, 2 mM CaCl2, 1 mM MgCl2, 5 mM glucose, 60 mM NMDG, 10 mM HEPES, osmolarity: about 289 mOsm; and internal solution (PH = 7.4): 10 mM NaCl, 10 mM KCl, 110 mM KF, 10 mM HEPES, EGTA: […], osmolarity: about 280 mOsm.
Equipment: QPatch high-throughput automated patch clamp system, Sophion.
Method: CHO cells stably expressing a human hERG potassium channel were digested with TrypLE and resuspended in the physiological solution for later use. The single-cell high-impedance sealing and whole-cell mode formation processes were automatically completed by Qpatch. The cells were clamped at a voltage of -80 mV, then a voltage of -50 mV was applied for 80 ms to subtract (current) leakage, and a voltage of +20 mV was applied for 4800 ms to open the hERG channel. The voltage was then reduced to -50 mV and maintained for 5000 ms. This process was used for data collection and analysis. Finally, the voltage was returned to the clamping voltage (-80 mV, 1000 ms). This process was repeated every 20,000 ms. […]

[3] = Caco-2 monolayer two-way permeability and efflux; assay type: in vitro ADME; conditions: human
Protocol: Instruments: water purification instrument, ELGA LabWate; biosafety cabinet, NUAIRE; thermostatic CO2 incubator, Thermo; microplate reader, PerkinElmer; LC-MS/MS, AB SCIEX.
Method: A Caco-2 monolayer cell model was used to determine the two-way permeability of the test substance and evaluate whether the test substance was transported via efflux by a transporter. In the experiment, Caco-2 cells were seeded into a 96-well cell culture plate and cultured for 28 consecutive days before a transport assay. The test substance was administered on two sides. After 120 min of incubation, samples of apical end A, basal end B, and the cell lysate were collected, and the content of the test substance in the samples was quantitatively determined using a liquid chromatography-tandem mass spectrometry (LC/MS/MS) method. The apparent permeability coefficients (Papp) in the direction from the apical end to the basal end (A-B) and in the direction from the basal end to the apical end (B-A) and the efflux ratio were calculated based on the concentration of the test substance. Table 15. The permeability of the compound of formula I in Caco-2 cells

human GnRHR [4] = target: T1, human GnRHR; test: In vitro antagonistic activity screening (FLIPR fluorescence, Leuprolide acetate stimulation); assay type: cell-based; conditions: HEK293 cells stably expressing human GnRHR
Protocol: Cell: HEK293 cells stably expressing human GnRHR (WuXi AppTec (Shanghai) Co., Ltd.) Equipment: 384-well plate, Greiner; Vi-cell XR Cell Viability Analyzer, Beckman Coulter; incubator, Thermo.
Method: HEK293 cells stably expressing human GnRHR were seeded into a 384-well plate at a density of 20,000 cells/well. Fluo-4 DirectTM No-wash Loading Buffer (Invitrogen) was added to each well the next day, and then the plate was put back into an incubator, incubated at 37 °C for 50 min, and then incubated at room temperature for 10 min. […] Fluorescence was measured using a FLIPR Tetra high-throughput real-time fluorescence assay and analysis system. Then 10 µL of Leuprolide acetate was added, and fluorescence was measured. The IC50 and IC90 of the compound were calculated using Prism. Table 12. The in vitro antagonistic activity of the compound of formula I against human GnRHR

[5] = In vivo pharmacokinetics in SD rats; conditions: for F: absolute bioavailability; for AUC(0-t) / C0 / MRT last / half-life / Cmax / Tmax: male, rat, plasma
Protocol: (§1) Rats: SD rats, male, 200-250 g
(§2) Instruments: water purification instrument, Millipore; electronic balance, METTLER TOLEDO; highspeed benchtop centrifuge, Thermo; water bath thermostatic oscillator, Shanghai Yiheng Technical Co., Ltd.; vortex oscillator, Thermo; LC-MS/MS, AB SCIEX.
(§3) Method: Solutions of all compounds were prepared using DMSO and 20% solutol. In the pharmacokinetic experiment, the administration dose for the intravenous group (i.v) was 1 mg/kg, and the administration dose for the intragastric group (i.g) was 12 mg/kg; each group contained 3 rats. Blood was collected from the orbit of the rats before administration (0 h) and at set time points after administration. In the tissue distribution experimental group, the rats were intragastrically dosed at 12 mg/kg. […] The […] was placed in a heparinized EP tube and centrifuged at 13,500 rpm for 10 min to isolate the plasma. The pituitary was homogenized with water in a certain ratio. The plasma and pituitary homogenates were pre-treated and then analyzed by LC-MS/MS to determine the concentrations of the test substances in the plasma and the pituitary. The plasma drug concentration data were processed in a non-compartmental model using WinNonlin™ Version 6.3 (Pharsight, Mountain View, CA) pharmacokinetic software. […] Table 16-1. Pharmacokinetic parameters in SD rats after intravenous administration

[6] = Pituitary tissue distribution in SD rats; assay type: in vivo; conditions: intragastric 12 mg/kg; for Kp at 1 h / Kp at 4 h / Kp at 12 h: male, rat, pituitary/plasma, oral
Protocol: as §1, §2, §3

[7] = intragastric administration group

CCNC(=O)Nc1ccc(-c2sc3c(c2CN(C)C)c(=O)n(-c2ccc(OC)nn2)c(=O)n3Cc2c(F)cccc2F)cn1 [Formula I]
IC50 (human GnRHR [1]): 0.64 nM
IC90 (human GnRHR [1]): 2.67 nM
IC50 [2]: 25800 nM
efflux ratio at 120 min ([3]; Caco-2): 294
Papp A→B at 120 min ([3]; Caco-2, 120 min incubation, A to B): 0.0142 ×10⁻⁶ cm/s
Papp B→A at 120 min ([3]; Caco-2, 120 min incubation, B to A): 4.19 ×10⁻⁶ cm/s
IC50 (human GnRHR [4]; read-out: Functional IC50): 1.01 nM
IC90 (human GnRHR [4]; read-out: Functional IC90): 7.55 nM
F ([5]; i.g 12 mg/kg): 19.9%
AUClast relative to Relugolix [5, 7]: 2.45 times
Cmax relative to Relugolix [5, 7]: 3.63 times
AUC(0-t) ([5]; intravenous, i.v 1 mg/kg): 150 ± 12 ng·h/mL
C0 ([5]; intravenous, i.v 1 mg/kg): 68.8 ± 21.7 ng/mL
MRT last ([5]; intravenous, i.v 1 mg/kg): 5.41 ± 0.47 h
half-life ([5]; intravenous, i.v 1 mg/kg): 6.39 ± 1.08 h
AUC(0-t) ([5]; oral, i.g 12 mg/kg): 357 ± 85 ng·h/mL
Cmax ([5]; oral, i.g 12 mg/kg): 78.5 ± 36.4 ng/mL
MRT last ([5]; oral, i.g 12 mg/kg): 6.13 ± 1.1 h
Tmax ([5]; oral, i.g 12 mg/kg): 0.38 ± 0.14 h
half-life ([5]; oral, i.g 12 mg/kg): 4.31 ± 1.81 h
Pituitary ([6]; 1 h): 2250±474
Plasma ([6]; 1 h): 39.5±14.0
concentration in the pituitary relative to Relugolix ([6]; 1 h): 2.38 times
Pituitary ([6]; 4 h): 1841±636
Plasma ([6]; 4 h): 22.8±2.5
concentration in the pituitary relative to Relugolix ([6]; 4 h): 1.48 times
Pituitary ([6]; 12 h): 1254±494
Plasma ([6]; 12 h): 9.70±3.10
concentration in the pituitary relative to Relugolix ([6]; 12 h): 2.46 times
Kp at 1 h ([6]; 1 h): 56.9
Kp at 4 h ([6]; 4 h): 80.8
Kp at 12 h ([6]; 12 h): 129

CONC(=O)Nc1ccc(-c2sc3c(c2CN(C)C)c(=O)n(-c2ccc(OC)nn2)c(=O)n3Cc2c(F)cccc2F)cc1 [Relugolix, reference compound]
T1/2 ([5]; i.g 12 mg/kg): 3.88 ± 0.57 h
F ([5]; i.g 12 mg/kg): 5.74%
AUC(0-t) ([5]; intravenous, i.v 1 mg/kg): 212 ± 61 ng·h/mL
C0 ([5]; intravenous, i.v 1 mg/kg): 339 ± 36 ng/mL
MRT last ([5]; intravenous, i.v 1 mg/kg): 2.01 ± 0.92 h
AUC(0-t) ([5]; oral, i.g 12 mg/kg): 146 ± 37 ng·h/mL
Cmax ([5]; oral, i.g 12 mg/kg): 21.6 ± 8.3 ng/mL
MRT last ([5]; oral, i.g 12 mg/kg): 5.68 ± 0.17 h
Tmax ([5]; oral, i.g 12 mg/kg): 0.33 ± 0.14 h
Kp at 1 h ([6]; 1 h): 42.4
Kp at 4 h ([6]; 4 h): 76.3
Kp at 12 h ([6]; 12 h): 161
